System: latent HIV-1 infection in LWI6 cells
Assay: Reactivation of latent HIV-1 in LWI6 reporter cells, EGFP plate based fluorometry (384-well)
Format: cell-based
Details: LWI6, 1×10^5 cells/well, 384-well plate
From the text: Latently HIV-1 infected reporter cell lines with an increased dynamic range of the EGFP signal. An indicator cell line with HTS feasibility was generated through stable transfection with a reporter plasmid in which the HIV-1 promoter (long terminal repeat; LTR) controls the expression of EGFP. Nucleic acid sequences for HIV-1 LTR (SEQ ID NO:1) can be accessed via GenBank Accession No. X03189. All of the information, including any nucleic acid and amino acid sequences provided for HIV-1 LTR under GenBank Accession X03189 is hereby incorporated in its entirety by this reference. […] In the resulting latently infected T cell clones (LWI4, LWI6, LWI7, LRJ3, LRJ5, LRJ12), maximal EGFP expression was increased by a factor of 10 in comparison to other reporter cell lines incorporating GFP into the HIV-1 genome when analyzed by flow cytometry (FIG. 1).
Assay optimization in […] format plates. […] The need to work with low quantities of material and thus low numbers of reporter cells that are treated has to be balanced with the requirements to obtain a sufficiently high signal to background ratio to avoid false negative hits during the screen. […] Although EGFP fluorescence continued to increase up to the highest density of cells, wells with 1×10^5 cells gave a 40-fold increase of EGFP fluorescence intensity over background after 24 h, and an 80-fold increase after 48 h. […]

For TNF-α, the “increase of EGFP fluorescence intensity over background” value (after 24 h) was 40 fold and the “increase of EGFP fluorescence intensity over background” value (after 48 h) was 80 fold.
